# Source: patent US20250136553A1, “ACYLSULFONAMIDE KAT6A INHIBITORS” (Olema Pharmaceuticals, Inc., priority 2023, published 2025)
# Biological target: human-KAT6A (MYST domain 507-778 aa) (Homo sapiens (Human), UniProt Q92794)
# Experiment: KAT6A biochemical assay (TR-FRET)
# Conditions: @ 10 μM; reported where IC50 could not be determined; read-out: Percent inhibition at specific concentration (KAT6A)
# Text: TR-FRET based methods were used for assaying compounds of the present invention for KAT6A enzyme inhibitory activity. TR-FRET is a homogeneous proximity assay where Europium-labelled anti-acetyl lysine antibody binds to the acetylated substrate labelled with biotin, which in turn binds to streptavidin-labelled APC fluorescence acceptor. Europium can transfer energy to APC in the complex and the interaction of two dye-labelled binding partners is detected by the energy transfer between a donor and an acceptor dye and the subsequent light emission by the acceptor dye. KAT6A transfer an acetyl group from acetyl CoA to lysine amino acids of histones/target proteins. […] The selected compound of the present invention and enzyme are incubated for 30 min on plate shaker at 300 rpm at 25° C. Next, 5 μL of substrate mix containing histone H4 peptide and acetyl-CoA in assay buffer is added to the plate. The final concentrations of H4 peptide and acetyl-CoA are 200 nM and 600 nM, respectively. Following 60 min reaction at 25° C. on plate shaker at 300 rpm, 5 μL of detection mix containing Europium-labelled anti-acetyl antibody and streptavidin-APC is added to the reaction wells. The plate is further incubated at 25° C. on shaker at 300 rpm and is read in TR-FRET mode (Ex:340 nm; Em: 615 nm and 665 nm) on a plate reader to achieve ˜5-7-fold activity. The percent inhibition was calculated from the ratio of the fluorescence (FL) intensities [(F665/F615)×10000) using the formula […]. IC50 values of the compounds were determined by fitting the dose-response data to sigmoidal curve fitting equation using Graph pad prism software V9.
# Chain of human-KAT6A (MYST domain 507-778 aa) (Q92794 507-778): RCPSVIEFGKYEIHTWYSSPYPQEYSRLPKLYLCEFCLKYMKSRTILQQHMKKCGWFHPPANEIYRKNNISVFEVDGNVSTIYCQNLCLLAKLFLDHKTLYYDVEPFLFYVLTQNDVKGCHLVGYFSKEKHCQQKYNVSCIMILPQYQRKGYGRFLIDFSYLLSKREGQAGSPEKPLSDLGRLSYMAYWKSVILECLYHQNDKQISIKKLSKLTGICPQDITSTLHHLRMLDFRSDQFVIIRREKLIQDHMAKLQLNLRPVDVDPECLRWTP
row,inhibition at 10 µM [%],Molecule
1,26,"COc1cc(Cn2cccn2)cc(C(=O)NS(=O)(=O)c2c(OC)cccc2OC)c1 [Compound 6, 3-((1H-pyrazol-1-yl)methyl)-N-((2,6-dimethoxyphenyl)sulfonyl)-5-methoxybenzamide]"
2,13,"COc1ccc(Cn2cccn2)cc1C(=O)NS(=O)(=O)c1cc(C(C)(C)C)ccc1OC [Compound 9, 5-((1H-pyrazol-1-yl)methyl)-N-((5-(tert-butyl)-2-methoxyphenyl)sulfonyl)-2-methoxybenzamide]"

# Same assay, conditions: KAT6A IC50 (nM), TR-FRET; histone H4 peptide 200 nM, acetyl-CoA 600 nM
row,Molecule,IC50 [nM]
1,"COc1cc(C(=O)NS(=O)(=O)c2c(OC)cccc2OC)ccc1Cn1cccn1 [Compound 14, 4-((1H-pyrazol-1-yl)methyl)-N-((2,6-dimethoxyphenyl)sulfonyl)-3-methoxybenzamide]",7

# Same assay, conditions: TR-FRET; histone H4 peptide 200 nM, acetyl-CoA 600 nM; read-out: KAT6A IC50
row,Molecule,IC50 [nM]
1,5-((1H-pyrazol-1-yl)methyl)-N-((5-(tert-butyl)-2-methoxyphenyl)sulfonyl)-4-methoxypyrimidine-2-carboxamide [Compound 264],12
2,"COc1cc(Cn2cccn2)ccc1C(=O)NS(=O)(=O)c1c(OC)cccc1OC [Compound 1, 4-((1H-pyrazol-1-yl)methyl)-N-((2,6-dimethoxyphenyl)sulfonyl)-2-methoxybenzamide]",247
3,"COc1cc(Cn2cccn2)ccc1C(=O)NS(=O)(=O)c1ccccc1OC [Compound 2, 4-((1H-pyrazol-1-yl)methyl)-2-methoxy-N-((2-methoxyphenyl)sulfonyl)benzamide]",741
4,"CCc1ccc(OC)c(S(=O)(=O)NC(=O)c2ccc(Cn3cccn3)cc2OC)c1 [Compound 3, 4-((1H-pyrazol-1-yl)methyl)-N-((5-ethyl-2-methoxyphenyl)sulfonyl)-2-methoxybenzamide]",137
5,COc1cc(Cn2cccn2)ccc1C(=O)NS(=O)(=O)c1cc(C(C)(C)C)ccc1OC [Compound 4],82
6,"COc1cc(Cn2cccn2)ccc1C(=O)NS(=O)(=O)c1cc2c(cc1OC)CCC2 [Compound 5, 4-((1H-pyrazol-1-yl)methyl)-2-methoxy-N-((6-methoxy-2,3-dihydro-1H-inden-5-yl)sulfonyl)benzamide]",178
7,"COc1ccc(C(C)(C)C)cc1S(=O)(=O)NC(=O)c1ccc(Cn2cccn2)cc1F [Compound 7, 4-((1H-pyrazol-1-yl)methyl)-N-((5-(tert-butyl)-2-methoxyphenyl)sulfonyl)-2-fluorobenzamide]",99
8,"COc1cc(C(=O)NS(=O)(=O)c2ccc(C(C)(C)C)cc2OC)ccc1Cn1cccn1 [Compound 8, 4-((1H-pyrazol-1-yl)methyl)-N-((4-(tert-butyl)-2-methoxyphenyl)sulfonyl)-3-methoxybenzamide]",17
9,"COc1cc(Cn2cccn2)ccc1C(=O)NS(=O)(=O)c1ccc(-n2cccn2)cc1OC [Compound 10, 4-((1H-pyrazol-1-yl)methyl)-2-methoxy-N-((2-methoxy-4-(1H-pyrazol-1-yl)phenyl)sulfonyl)benzamide]",1480
10,"COc1cc(Cn2cccn2)ccc1C(=O)NS(=O)(=O)c1ccc(C(C)(C)C)cc1OC [Compound 11, 4-((1H-pyrazol-1-yl)methyl)-N-((4-(tert-butyl)-2-methoxyphenyl)sulfonyl)-2-methoxybenzamide]",500
11,"COc1cccc(OC)c1S(=O)(=O)NC(=O)c1ccc(Cn2cccn2)c(F)c1 [Compound 12, 4-((1H-pyrazol-1-yl)methyl)-N-((2,6-dimethoxyphenyl)sulfonyl)-3-fluorobenzamide]",48
12,"COc1ccc(C(C)(C)C)cc1S(=O)(=O)NC(=O)c1ccc(Cn2cccn2)c(F)c1 [Compound 13, 4-((1H-pyrazol-1-yl)methyl)-N-((5-(tert-butyl)-2-methoxyphenyl)sulfonyl)-3-fluorobenzamide]",47
13,"COc1cc(C(=O)NS(=O)(=O)c2c(OC)cccc2OC)ccc1Cn1cccn1 [Compound 14, 4-((1H-pyrazol-1-yl)methyl)-N-((2,6-dimethoxyphenyl)sulfonyl)-3-methoxybenzamide]",32
14,"COc1cc(Cn2cccn2)ccc1C(=O)NS(=O)(=O)c1cc2c(cc1OC)CCCC2 [Compound 15, 4-((1H-pyrazol-1-yl)methyl)-2-methoxy-N-((3-methoxy-5,6,7,8-tetrahydronaphthalen-2-yl)sulfonyl)benzamide]",576
15,"COc1ccc(C(C)(C)C)cc1S(=O)(=O)NC(=O)c1ccc(Cn2cccn2)c(Br)c1 [Compound 16, 4-((1H-pyrazol-1-yl)methyl)-3-bromo-N-((5-(tert-butyl)-2-methoxyphenyl)sulfonyl)benzamide]",26
16,"COc1ccc(C(C)(C)C)cc1S(=O)(=O)NC(=O)c1ccc(Cn2cccn2)c(C2CC2)c1 [Compound 17, 4-((1H-pyrazol-1-yl)methyl)-N-((5-(tert-butyl)-2-methoxyphenyl)sulfonyl)-3-cyclopropylbenzamide]",20
17,COc1ccc(C(C)(C)C)cc1S(=O)(=O)NC(=O)c1ccc(Cn2cccn2)c(C#N)c1 [Compound 18],70
18,"COc1cc(C(=O)NS(=O)(=O)c2cc(-n3cccn3)ccc2OC)ccc1Cn1cccn1 [Compound 19, 4-((1H-pyrazol-1-yl)methyl)-3-methoxy-N-((2-methoxy-5-(1H-pyrazol-1-yl)phenyl)sulfonyl)benzamide]",42

# More lines, now with the values ahead:
row,IC50 [nM],Molecule
1,35,"CCOc1cccc(OC)c1S(=N)(=O)NC(=O)c1ccc(Cn2cccn2)c(OC)n1 (racemic) [Compound 294, 5-((1H-pyrazol-1-yl)methyl)-N-(2-ethoxy-6-methoxyphenylsulfonimidoyl)-6-methoxypicolinamide]"
2,39,"COc1ccc(C(C)(C)O)cc1S(=N)(=O)NC(=O)c1ccc(Cn2cccn2)c(OC)n1 (racemic) [Compound 297, 5-((1H-pyrazol-1-yl)methyl)-N-(5-(2-hydroxypropan-2-yl)-2-methoxyphenylsulfonimidoyl)-6-methoxypicolinamide]"
3,25,"COc1cc(OC)c(S(=N)(=O)NC(=O)c2ccc(Cn3cccn3)c(OC)c2)c(OC)c1 (racemic) [Compound 299, 4-((1H-pyrazol-1-yl)methyl)-3-methoxy-N-(2,4,6-trimethoxyphenylsulfonimidoyl)benzamide]"
4,17,"COc1cccc(OC)c1S(=N)(=O)NC(=O)c1ccc(Cn2cccn2)c(OC)n1 (single isomer, unassigned) [Compound 243a]"
5,82,"COc1cccc(OC)c1S(=N)(=O)NC(=O)c1ccc(Cn2cccn2)c(OC)n1 (single isomer, unassigned) [Compound 243b]"
6,39,"COc1ccc(C(C)(C)C)cc1S(=O)(=O)NC(=O)c1ccc(Cn2cccn2)c(C)c1 [Compound 20, 4-((1H-pyrazol-1-yl)methyl)-N-((5-(tert-butyl)-2-methoxyphenyl)sulfonyl)-3-methylbenzamide]"
7,28,"CCOc1cc(C(=O)NS(=O)(=O)c2cc(C(C)(C)C)ccc2OC)ccc1Cn1cccn1 [Compound 21, 4-((1H-pyrazol-1-yl)methyl)-N-((5-(tert-butyl)-2-methoxyphenyl)sulfonyl)-3-ethoxybenzamide]"
8,49,"COc1cc(C(=O)NS(=O)(=O)c2ccccc2-c2ccccc2)ccc1Cn1cccn1 [Compound 22, 4-((1H-pyrazol-1-yl)methyl)-N-([1,1′-biphenyl]-2-ylsulfonyl)-3-methoxybenzamide]"
9,32,"COc1cc(C(=O)NS(=O)(=O)c2cccc(O)c2)ccc1Cn1cccn1 [Compound 23, 4-((1H-pyrazol-1-yl)methyl)-N-((3-hydroxyphenyl)sulfonyl)-3-methoxybenzamide]"
10,12,"COc1cc(C(=O)NS(=O)(=O)c2cc(Br)ccc2OC)ccc1Cn1cccn1 [Compound 24, 4-((1H-pyrazol-1-yl)methyl)-N-((5-bromo-2-methoxyphenyl)sulfonyl)-3-methoxybenzamide]"
